Laboratory results from PubChem BioAssay AID1259407 (Chemical Carcinogenesis Research Information System (CCRIS), 2018).
The source made the active and inactive calls. No rule for the calls is given here.

System: CCRIS mutagenicity, Ames/micronucleus/aberration tests
Assay: CCRIS mutagenicity studies
[1] = Test System: AMES SALMONELLA TYPHIMURIUM, Strain/Indicator: TA97, Metabolic Activation: NONE, Method: STANDARD PLATE
[2] = Test System: AMES SALMONELLA TYPHIMURIUM, Strain/Indicator: TA98, Metabolic Activation: NONE, Method: STANDARD PLATE
[3] = Test System: AMES SALMONELLA TYPHIMURIUM, Strain/Indicator: TA98, Metabolic Activation: RAT, LIVER, S-9, AROCLOR 1254, Method: STANDARD PLATE
[4] = Test System: AMES SALMONELLA TYPHIMURIUM, Strain/Indicator: TA100, Metabolic Activation: NONE, Method: STANDARD PLATE
[5] = Test System: AMES SALMONELLA TYPHIMURIUM, Strain/Indicator: TA100, Metabolic Activation: RAT, LIVER, S-9, AROCLOR 1254, Method: STANDARD PLATE
[6] = Test System: AMES SALMONELLA TYPHIMURIUM, Strain/Indicator: TA1535, Metabolic Activation: NONE, Method: STANDARD PLATE
[7] = Test System: AMES SALMONELLA TYPHIMURIUM, Strain/Indicator: TA102, Metabolic Activation: NONE, Method: STANDARD PLATE
[8] = Test System: AMES SALMONELLA TYPHIMURIUM, Strain/Indicator: TA1537, Metabolic Activation: NONE, Method: STANDARD PLATE

Measured: mutagenic call

CN(N=O)C(=O)N[C@@H](C=O)[C@@H](O)[C@H](O)[C@H](O)CO
inactive: Test System: AMES SALMONELLA TYPHIMURIUM, Strain/Indicator: TA97, Metabolic Activation: RAT, LIVER, S-9, AROCLOR 1254, Method: STANDARD PLATE inactive; negative | [2] inactive; negative | [3] inactive; negative | [5] inactive; negative
active: End Point: IN VITRO CHROMOSOMAL ABERRATIONS, Test System: CHE CELLS, Metabolic Activation: NONE, Method: FISH (METAPHASE) active; positive (structural changes) | [1] active; positive | [4] active; positive | [6] active; positive | Test System: CHINESE HAMSTER OVARY, Strain/Indicator: CHO-9 (HPRT), Metabolic Activation: NONE active; positive | Test System: CHINESE HAMSTER OVARY, Strain/Indicator: CHO-9/OUABAIN, Metabolic Activation: NONE active; positive | Test System: CHINESE HAMSTER OVARY, Strain/Indicator: CHO-K1-BH4 (HGPRT), Metabolic Activation: NONE, Method: SUSPENSION/PLATE active; positive | Test System: CHINESE HAMSTER OVARY, Strain/Indicator: EM-C11 (HPRT), Metabolic Activation: NONE active; positive | Test System: CHINESE HAMSTER OVARY, Strain/Indicator: EM-C11/OUABAIN, Metabolic Activation: NONE active; positive | Test System: CHINESE HAMSTER V-79, Strain/Indicator: V-79/6-THIOGUANINE, Metabolic Activation: NONE, Method: STANDARD PLATE active; positive | Test System: CHINESE HAMSTER V-79, Strain/Indicator: V-79/8-AZAGUANINE, Metabolic Activation: NONE, Method: STANDARD PLATE active; positive | Test System: E. COLI, Strain/Indicator: WP2 (HCR), Metabolic Activation: NONE, Method: STANDARD PLATE active; positive

Cc1nnc2n1-c1ccc(Cl)cc1C(c1ccccc1Cl)=NC2
inactive: [2] inactive; negative | [3] inactive; negative | [4] inactive; negative | [5] inactive; negative | [7] inactive; negative | Test System: AMES SALMONELLA TYPHIMURIUM, Strain/Indicator: TA102, Metabolic Activation: RAT, LIVER, S-9, AROCLOR 1254, Method: STANDARD PLATE inactive; negative | [6] inactive; negative | Test System: AMES SALMONELLA TYPHIMURIUM, Strain/Indicator: TA1535, Metabolic Activation: RAT, LIVER, S-9, AROCLOR 1254, Method: STANDARD PLATE inactive; negative | [8] inactive; negative | Test System: AMES SALMONELLA TYPHIMURIUM, Strain/Indicator: TA1537, Metabolic Activation: RAT, LIVER, S-9, AROCLOR 1254, Method: STANDARD PLATE inactive; negative | Test System: E. COLI, Strain/Indicator: WP2 UVRA, Metabolic Activation: NONE, Method: STANDARD PLATE inactive; negative | Test System: E. COLI, Strain/Indicator: WP2 UVRA, Metabolic Activation: RAT, LIVER, S-9, AROCLOR 1254, Method: STANDARD PLATE inactive; negative

O[Te](O)(O)(O)(O)O
active: End Point: IN VITRO MICRONUCLEUS, Test System: HUMAN PERIPHERAL LYMPHOCYTES, Metabolic Activation: NONE, Method: FISH (CENTROMERIC SIGNAL CONTENT) active; positive

Cc1cc(O)c2c(c1O)C(=O)c1cc(O)cc(O)c1C2=O
inactive: [8] inactive; negative | Test System: AMES SALMONELLA TYPHIMURIUM, Strain/Indicator: TA1537, Metabolic Activation: RAT, LIVER, S-9, PCB, Method: STANDARD PLATE inactive; negative

CC(C)c1ccc2oc3nc(N)c(C(=O)O)cc3c(=O)c2c1
inactive: Test System: AMES SALMONELLA TYPHIMURIUM, Strain/Indicator: TA98, Metabolic Activation: NONE, Method: PREINCUBATION inactive; negative | Test System: AMES SALMONELLA TYPHIMURIUM, Strain/Indicator: TA98, Metabolic Activation: RAT, LIVER, S-9, AROCLOR 1254, Method: PREINCUBATION inactive; negative | Test System: AMES SALMONELLA TYPHIMURIUM, Strain/Indicator: TA100, Metabolic Activation: NONE, Method: PREINCUBATION inactive; negative | Test System: AMES SALMONELLA TYPHIMURIUM, Strain/Indicator: TA100, Metabolic Activation: RAT, LIVER, S-9, AROCLOR 1254, Method: PREINCUBATION inactive; negative | Test System: AMES SALMONELLA TYPHIMURIUM, Strain/Indicator: TA1537, Metabolic Activation: NONE, Method: PREINCUBATION inactive; negative | Test System: AMES SALMONELLA TYPHIMURIUM, Strain/Indicator: TA1537, Metabolic Activation: RAT, LIVER, S-9, AROCLOR 1254, Method: PREINCUBATION inactive; negative | Test System: E. COLI, Strain/Indicator: WP2 (HCR), Metabolic Activation: NONE, Method: PREINCUBATION inactive; negative | Test System: E. COLI, Strain/Indicator: WP2 (HCR), Metabolic Activation: RAT, LIVER, S-9, AROCLOR 1254, Method: PREINCUBATION inactive; negative

O=C1NCCN1/N=C/c1ccc([N+](=O)[O-])o1
inactive: Test System: AMES SALMONELLA TYPHIMURIUM, Strain/Indicator: TA98, Metabolic Activation: S-9 inactive; negative
active: Test System: AMES SALMONELLA TYPHIMURIUM, Strain/Indicator: TA98, Metabolic Activation: NONE active; positive | Test System: AMES SALMONELLA TYPHIMURIUM, Strain/Indicator: TA100, Metabolic Activation: NONE active; positive | Test System: AMES SALMONELLA TYPHIMURIUM, Strain/Indicator: TA100, Metabolic Activation: S-9 active; positive

c1ccc(CSSCc2ccccc2)cc1
inactive: [1] inactive; negative | Test System: AMES SALMONELLA TYPHIMURIUM, Strain/Indicator: TA97, Metabolic Activation: S-9, Method: STANDARD PLATE inactive; negative | [2] inactive; negative | Test System: AMES SALMONELLA TYPHIMURIUM, Strain/Indicator: TA98, Metabolic Activation: S-9, Method: STANDARD PLATE inactive; negative | [4] inactive; negative | Test System: AMES SALMONELLA TYPHIMURIUM, Strain/Indicator: TA100, Metabolic Activation: S-9, Method: STANDARD PLATE inactive; negative
active: [7] active; positive | Test System: AMES SALMONELLA TYPHIMURIUM, Strain/Indicator: TA102, Metabolic Activation: S-9, Method: STANDARD PLATE active; positive

O=C1c2ccccc2-c2ccc3ccc4ccccc4c3c21
inactive: [5] inactive; negative

c1ccc(-c2ccnc3c2ccc2c(-c4ccccc4)ccnc23)cc1
active: Test System: Mouse lymphoma, Strain/Indicator: L5178Y (tk+/tk-), Metabolic Activation: None, Method: Suspension/plate active; positive
equivocal: Test System: Mouse lymphoma, Strain/Indicator: L5178Y (tk+/tk-), Metabolic Activation: Rat, Liver, S-9, Aroclor 1254, Method: Suspension/plate

O=C(CBr)c1oc([N+](=O)[O-])c(Cl)c1Cl
active: [2] active; positive | Test System: AMES SALMONELLA TYPHIMURIUM, Strain/Indicator: TA100 (NR), Metabolic Activation: NONE, Method: STANDARD PLATE active; positive | [4] active; positive | Test System: AMES SALMONELLA TYPHIMURIUM, Strain/Indicator: TA100, Metabolic Activation: NONE, Method: STANDARD PLATE (ANAEROBIC INCUBATION) active; positive
